# Measurements from PubChem BioAssay AID248 (DTP/NCI, 2004).
# Values joined by “and” are separate entries in the source; they are usually repeats but may differ in a detail not shown here. Identical values can stand only once. Inconclusive results and toxic doses are left out.
# Test system: L1210 leukemia ip in BDF1 mice, survival T/C
# Assay: NCI In Vivo Anticancer Drug Screen. Data for tumor model L1210 Leukemia (intraperitoneal) in B6D2F1 (BDF1) mice
# Conditions: endpoint: mean survival time, higher = longer survival
# In short: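 Mice bearing the transplanted tumor received compound or vehicle. Survival of the treated group was divided by that of the vehicle-treated control group to give the ratio.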
# [1] = dose: 50.0 mg/kg/injection, schedule: Q01DX005 (ip), vehicle: saline
# [2] = dose: 100.0 mg/kg/injection, schedule: Q01DX005 (ip), vehicle: saline
# [3] = dose: 200.0 mg/kg/injection, schedule: Q01DX005 (ip), vehicle: saline
# [4] = dose: 100.0 mg/kg/injection, schedule: Q01DX009 (ip), vehicle: Klucel (hydroxypropylcellulose) (HPC)
# [5] = dose: 200.0 mg/kg/injection, schedule: Q01DX009 (ip), vehicle: Klucel (hydroxypropylcellulose) (HPC)
# [6] = dose: 100.0 mg/kg/injection, schedule: Q01DX001 (ip), vehicle: saline
# [7] = dose: 200.0 mg/kg/injection, schedule: Q01DX001 (ip), vehicle: saline
# [8] = dose: 400.0 mg/kg/injection, schedule: Q01DX001 (ip), vehicle: saline
# [9] = dose: 100.0 mg/kg/injection, schedule: Q04DX003 (ip), vehicle: Klucel (hydroxypropylcellulose) (HPC)
# [10] = dose: 200.0 mg/kg/injection, schedule: Q04DX003 (ip), vehicle: Klucel (hydroxypropylcellulose) (HPC)
# [11] = dose: 400.0 mg/kg/injection, schedule: Q01DX009 (ip), vehicle: Klucel (hydroxypropylcellulose) (HPC)
# [12] = dose: 400.0 mg/kg/injection, schedule: Q04DX003 (ip), vehicle: Klucel (hydroxypropylcellulose) (HPC)
# [13] = dose: 100.0 mg/kg/injection, schedule: Q01DX001 (ip), vehicle: Klucel (hydroxypropylcellulose) (HPC)
# [14] = dose: 200.0 mg/kg/injection, schedule: Q01DX001 (ip), vehicle: Klucel (hydroxypropylcellulose) (HPC)
# [15] = dose: 400.0 mg/kg/injection, schedule: Q01DX001 (ip), vehicle: Klucel (hydroxypropylcellulose) (HPC)
smiles,measurement,setting,value
CC(=O)N1C(=O)NC(=O)C1(CSCc1ccccc1)CSCc1ccccc1,T/C,[1],104 % of control
same,T/C,[2],98 % of control
same,T/C,[3],110 % of control
same,T/C,"dose: 400.0 mg/kg/injection, schedule: Q01DX005 (ip), vehicle: saline",94 % of control
CN(C)Cc1cc(C(C)(C)CC(C)(C)C)cc(CN(C)C)c1O,T/C,[4],97 % of control
same,T/C,[5],99 % of control
Cc1nc(N)[nH]c(=O)c1CCCNS(=O)(=O)c1ccc(CN)cc1,T/C,[6],115 % of control
same,T/C,[7],98 % of control
same,T/C,[8],101 % of control
C[n+]1ccc(C#N)c2ccccc21,T/C,"dose: 1.56 mg/kg/injection, schedule: Q01DX009 (ip), vehicle: saline",96 % of control
same,T/C,"dose: 3.12 mg/kg/injection, schedule: Q01DX009 (ip), vehicle: saline",98 % of control
same,T/C,"dose: 6.25 mg/kg/injection, schedule: Q01DX009 (ip), vehicle: saline",106 % of control
same,T/C,"dose: 12.5 mg/kg/injection, schedule: Q01DX009 (ip), vehicle: saline",98 % of control
same,T/C,"dose: 12.5 mg/kg/injection, schedule: Q04DX003 (ip), vehicle: saline",101 % of control
C=CCN1C(=O)c2ccccc2C1=O,T/C,[4],100 % of control
same,T/C,[9],95 % of control
same,T/C,[5],100 % of control
same,T/C,[10],95 % of control
same,T/C,[11],91 % of control
same,T/C,[12],92 % of control
O=C(OCC1OC(n2c(=O)[nH]cc(F)c2=O)C(OC(=O)c2ccccc2)C1OC(=O)c1ccccc1)c1ccccc1 (configuration not stated),T/C,"dose: 12.5 mg/kg/injection, schedule: Q01DX005 (ip), vehicle: saline",121 % of control
same,T/C,"dose: 20.0 mg/kg/injection, schedule: Q01DX005 (ip), vehicle: Klucel (hydroxypropylcellulose) (HPC)",108 % of control
same,T/C,"dose: 25.0 mg/kg/injection, schedule: Q01DX005 (ip), vehicle: saline",152 % of control
same,T/C,[1],196 % of control and 206 % of control
same,T/C,"dose: 80.0 mg/kg/injection, schedule: Q01DX005 (ip), vehicle: Klucel (hydroxypropylcellulose) (HPC)",209 % of control
same,T/C,[2],94 % of control
same,T/C,[3],93 % of control and 92 % of control
Cc1cc(Br)c(N(C=O)N=O)c(Br)c1,T/C,"dose: 75.0 mg/kg/injection, schedule: Q01DX001 (ip), vehicle: saline",101 % of control
same,T/C,"dose: 150.0 mg/kg/injection, schedule: Q01DX001 (ip), vehicle: saline",104 % of control
CC(=O)c1ccccc1Br,T/C,[5],100 % of control
same,T/C,[11],97 % of control
O=C(NC(Cc1ccccc1)C(=O)N1CCOCC1)c1ccccc1 (configuration not stated),T/C,[6],91 % of control
same,T/C,[7],98 % of control
same,T/C,[8],89 % of control
O=C(CCl)NCC1(c2ccc(Cl)cc2)SC(CNC(=O)CCl)(c2ccc(Cl)cc2)S1 (configuration not stated),T/C,"dose: 100.0 mg/kg/injection, schedule: Q01DX009 (ip), vehicle: saline with Tween-80",97 % of control
same,T/C,"dose: 200.0 mg/kg/injection, schedule: Q01DX009 (ip), vehicle: saline with Tween-80",92 % of control
same,T/C,"dose: 400.0 mg/kg/injection, schedule: Q01DX009 (ip), vehicle: saline with Tween-80",104 % of control
Nc1ncnc2c1ncn2C1OC(CF)C(O)C1O (configuration not stated),T/C,"dose: 50.0 mg/kg/injection, schedule: Q01DX009 (ip), vehicle: saline",101 % of control
same,T/C,"dose: 100.0 mg/kg/injection, schedule: Q01DX009 (ip), vehicle: saline",100 % of control
same,T/C,"dose: 200.0 mg/kg/injection, schedule: Q01DX009 (ip), vehicle: saline",114 % of control
c1ccc(SCN2CCN(CSc3ccccc3)CC2)cc1,T/C,"dose: 100.0 mg/kg/injection, schedule: Q04DX003 (ip), vehicle: saline",101 % of control
same,T/C,"dose: 200.0 mg/kg/injection, schedule: Q04DX003 (ip), vehicle: saline",101 % of control
same,T/C,"dose: 400.0 mg/kg/injection, schedule: Q04DX003 (ip), vehicle: saline",98 % of control
CCOc1ccc(NC(=O)OC(C)C)cc1,T/C,[9],89 % of control
same,T/C,[10],94 % of control
same,T/C,[12],103 % of control
CSc1nc(C)c(C=O)s1,T/C,"dose: 100.0 mg/kg/injection, schedule: Q01DX001 (ip), vehicle: carboxymethylcellulose (CMC)",100 % of control
same,T/C,"dose: 200.0 mg/kg/injection, schedule: Q01DX001 (ip), vehicle: carboxymethylcellulose (CMC)",96 % of control
same,T/C,"dose: 400.0 mg/kg/injection, schedule: Q01DX001 (ip), vehicle: carboxymethylcellulose (CMC)",94 % of control
C1CCN(CCCCN2CCCCC2)CC1,T/C,[6],96 % of control
same,T/C,[7],104 % of control
same,T/C,[8],108 % of control
CC(C)(C)CC(C)(C)c1ccc(OCCOc2ccc(NS(=O)(=O)c3ccc([N+](=O)[O-])cc3)cc2)cc1,T/C,[9],91 % of control
same,T/C,[10],100 % of control
same,T/C,[12],91 % of control
COc1ccc(OC)c2c1CCCC2=O,T/C,"dose: 50.0 mg/kg/injection, schedule: Q01DX001 (ip), vehicle: saline",96 % of control
same,T/C,[6],99 % of control
same,T/C,[7],91 % of control
same,T/C,[8],96 % of control
C1=COC(C2NCCCN2)CC1 (configuration not stated),T/C,[6],102 % of control
same,T/C,[7],111 % of control
same,T/C,[8],106 % of control
Nc1cc(O)c(CCCNC(=O)CBr)c(-c2ccccc2)c1,T/C,[13],92 % of control
same,T/C,[14],105 % of control
same,T/C,[15],102 % of control
CCCCOC(=O)c1ccc(OCCOc2ccc(C(C)(C)CC(C)(C)C)cc2)c(NC(=O)CC(=O)c2cccc(N)c2)c1,T/C,"dose: 100.0 mg/kg/injection, schedule: Q01DX009 (ip), vehicle: saline sonified",97 % of control
same,T/C,[9],96 % of control
same,T/C,"dose: 200.0 mg/kg/injection, schedule: Q01DX009 (ip), vehicle: saline sonified",91 % of control
same,T/C,[10],93 % of control
same,T/C,"dose: 400.0 mg/kg/injection, schedule: Q01DX009 (ip), vehicle: saline sonified",103 % of control
same,T/C,[12],88 % of control
CC1([CH2][Hg][I])COCC([CH2][Hg][I])O1 (configuration not stated),T/C,"dose: 0.78 mg/kg/injection, schedule: Q01DX001 (ip), vehicle: acetone",105 % of control
same,T/C,"dose: 0.78 mg/kg/injection, schedule: Q04DX003 (ip), vehicle: saline",98 % of control
same,T/C,"dose: 1.56 mg/kg/injection, schedule: Q01DX001 (ip), vehicle: acetone",94 % of control
same,T/C,"dose: 1.56 mg/kg/injection, schedule: Q04DX003 (ip), vehicle: saline",96 % of control
same,T/C,"dose: 3.12 mg/kg/injection, schedule: Q01DX001 (ip), vehicle: acetone",94 % of control
same,T/C,"dose: 3.12 mg/kg/injection, schedule: Q04DX003 (ip), vehicle: saline",98 % of control
same,T/C,"dose: 4.6 mg/kg/injection, schedule: Q04DX003 (ip), vehicle: acetone",93 % of control
same,T/C,"dose: 5.75 mg/kg/injection, schedule: Q01DX009 (ip), vehicle: acetone",107 % of control
same,T/C,"dose: 7.0 mg/kg/injection, schedule: Q04DX003 (ip), vehicle: acetone",96 % of control
same,T/C,"dose: 10.5 mg/kg/injection, schedule: Q04DX003 (ip), vehicle: acetone",95 % of control
same,T/C,"dose: 11.5 mg/kg/injection, schedule: Q01DX009 (ip), vehicle: acetone",107 % of control
same,T/C,"dose: 15.0 mg/kg/injection, schedule: Q04DX003 (ip), vehicle: saline",110 % of control
same,T/C,"dose: 23.0 mg/kg/injection, schedule: Q01DX009 (ip), vehicle: acetone",111 % of control
same,T/C,"dose: 23.0 mg/kg/injection, schedule: Q04DX003 (ip), vehicle: saline",110 % of control
O=C(CSc1ccc(Cl)cc1)Nc1ccccc1,T/C,"dose: 100.0 mg/kg/injection, schedule: Q04DX002 (ip), vehicle: gum acacia",92 % of control
same,T/C,"dose: 200.0 mg/kg/injection, schedule: Q04DX002 (ip), vehicle: gum acacia",87 % of control
same,T/C,"dose: 400.0 mg/kg/injection, schedule: Q04DX002 (ip), vehicle: gum acacia",89 % of control
O=C(CCl)Nc1cc(Cl)c(Cl)cc1Cl,T/C,"dose: 100.0 mg/kg/injection, schedule: Q04DX003 (ip), vehicle: saline with Tween-80",97 % of control
same,T/C,"dose: 200.0 mg/kg/injection, schedule: Q04DX003 (ip), vehicle: saline with Tween-80",97 % of control
same,T/C,"dose: 400.0 mg/kg/injection, schedule: Q04DX003 (ip), vehicle: saline with Tween-80",106 % of control
CCOC(=O)C(Cc1ccc2ccccc2n1)C(=O)OCC,T/C,[13],100 % of control
same,T/C,[14],106 % of control
same,T/C,[15],100 % of control
CC(=O)OCCOc1ccccc1Cl,T/C,"dose: 100.0 mg/kg/injection, schedule: Q04DX002 (ip), vehicle: saline with Tween-80",118 % of control
same,T/C,"dose: 200.0 mg/kg/injection, schedule: Q04DX002 (ip), vehicle: saline with Tween-80",108 % of control
same,T/C,"dose: 400.0 mg/kg/injection, schedule: Q04DX002 (ip), vehicle: saline with Tween-80",114 % of control
